Assay results as given in ChEMBL document CHEMBL1147897, “Synthesis of enantiomerically pure milnacipran analogs and inhibition of dopamine, serotonin, and norepinephrine transporters” (Bioorg Med Chem Lett, 2007).
Several values for one entry are separate records, joined by “and”; a condition that tells them apart may be missing. Equal values may be shown once.

Columns and labels:
Format in all cases: functional, subcellular, Brain
[1] = biological target: Sodium-dependent dopamine transporter (Rattus norvegicus, UniProt P23977); assay: Inhibition of [3H]5-HT uptake at DA transporter in Wistar rat synaptosomes
Sequence of Sodium-dependent dopamine transporter (P23977 whole entry): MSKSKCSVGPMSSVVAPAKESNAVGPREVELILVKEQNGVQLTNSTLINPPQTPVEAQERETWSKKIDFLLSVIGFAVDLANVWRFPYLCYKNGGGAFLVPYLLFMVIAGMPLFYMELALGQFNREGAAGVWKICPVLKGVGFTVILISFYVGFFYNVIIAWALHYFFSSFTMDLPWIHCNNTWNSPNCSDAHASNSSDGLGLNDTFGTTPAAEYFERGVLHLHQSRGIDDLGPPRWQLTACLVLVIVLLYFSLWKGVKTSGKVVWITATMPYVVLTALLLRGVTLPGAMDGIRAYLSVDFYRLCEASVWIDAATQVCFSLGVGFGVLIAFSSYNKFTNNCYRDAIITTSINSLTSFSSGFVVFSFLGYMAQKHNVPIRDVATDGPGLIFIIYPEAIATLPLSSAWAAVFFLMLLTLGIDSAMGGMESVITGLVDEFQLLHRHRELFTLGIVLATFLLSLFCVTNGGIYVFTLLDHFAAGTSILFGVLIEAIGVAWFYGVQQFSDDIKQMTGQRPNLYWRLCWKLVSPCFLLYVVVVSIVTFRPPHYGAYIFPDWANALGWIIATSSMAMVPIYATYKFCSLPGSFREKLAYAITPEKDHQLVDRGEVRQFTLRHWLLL

[2] = biological target: Sodium-dependent serotonin transporter (Rattus norvegicus, UniProt P31652); assay: Inhibition of [3H]5-HT uptake at 5HT transporter in Wistar rat synaptosomes
Sequence of Sodium-dependent serotonin transporter (P31652 whole entry): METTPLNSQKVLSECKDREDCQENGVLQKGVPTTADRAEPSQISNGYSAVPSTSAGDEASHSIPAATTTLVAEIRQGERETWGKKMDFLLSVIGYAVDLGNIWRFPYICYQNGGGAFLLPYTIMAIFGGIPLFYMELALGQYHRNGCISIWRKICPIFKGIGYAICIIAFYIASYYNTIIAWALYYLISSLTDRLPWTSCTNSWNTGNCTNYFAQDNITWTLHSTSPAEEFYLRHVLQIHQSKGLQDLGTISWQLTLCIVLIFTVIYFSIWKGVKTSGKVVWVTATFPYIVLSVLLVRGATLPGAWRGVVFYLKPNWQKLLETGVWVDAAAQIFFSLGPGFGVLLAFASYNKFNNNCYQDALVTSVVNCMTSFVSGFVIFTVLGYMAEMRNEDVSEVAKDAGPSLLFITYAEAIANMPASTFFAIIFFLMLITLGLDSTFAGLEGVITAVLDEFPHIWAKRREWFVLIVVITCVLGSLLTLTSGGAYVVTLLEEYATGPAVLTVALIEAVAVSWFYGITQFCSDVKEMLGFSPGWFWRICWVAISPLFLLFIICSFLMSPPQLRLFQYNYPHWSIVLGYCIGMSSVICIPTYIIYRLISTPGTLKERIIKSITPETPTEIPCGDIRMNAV

[3] = biological target: Norepinephrine transporter (Rattus norvegicus, UniProt Q9WTR4); assay: Inhibition of [3H]5-HT uptake at NE transporter in Wistar rat synaptosomes
Sequence of Norepinephrine transporter (Q9WTR4 whole entry): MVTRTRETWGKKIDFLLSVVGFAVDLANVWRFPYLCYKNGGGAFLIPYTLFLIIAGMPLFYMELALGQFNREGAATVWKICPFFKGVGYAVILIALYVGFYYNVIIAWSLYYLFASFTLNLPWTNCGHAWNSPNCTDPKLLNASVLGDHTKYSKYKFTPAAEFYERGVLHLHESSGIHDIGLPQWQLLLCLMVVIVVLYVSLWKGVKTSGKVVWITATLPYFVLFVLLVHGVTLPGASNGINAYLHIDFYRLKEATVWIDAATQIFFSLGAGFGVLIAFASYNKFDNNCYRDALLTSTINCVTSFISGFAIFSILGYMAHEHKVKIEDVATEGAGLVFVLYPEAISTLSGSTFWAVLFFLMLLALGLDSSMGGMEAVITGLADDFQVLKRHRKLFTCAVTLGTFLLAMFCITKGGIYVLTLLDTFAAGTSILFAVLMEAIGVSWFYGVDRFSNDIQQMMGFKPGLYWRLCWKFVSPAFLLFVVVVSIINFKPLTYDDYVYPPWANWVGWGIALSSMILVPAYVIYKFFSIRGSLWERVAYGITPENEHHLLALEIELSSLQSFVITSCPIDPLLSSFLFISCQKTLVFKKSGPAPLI

Compound	IC50 [1]	IC50 [2]	IC50 [3]
CCN(CC)C(=O)[C@]1(c2ccc(Cl)cc2)C[C@@H]1CN	3700 nM	190 nM	
CCN(CC)C(=O)[C@]1(c2ccc(Cl)c(Cl)c2)C[C@@H]1CN	540 nM	84 nM	10 nM
CCN(CC)C(=O)[C@]1(c2ccc(OC)cc2)C[C@@H]1CN		230 nM	140 nM
CCN(CC)C(=O)[C@]1(c2cccs2)C[C@@H]1CN		250 nM and 520 nM	
CCN(CC)C(=O)[C@]1(c2ccsc2)C[C@@H]1CN		250 nM	410 nM
CCN(CC)C(=O)[C@@]1(c2ccc(Cl)cc2)C[C@H]1CN		790 nM	
CCN(CC)C(=O)[C@@]1(c2ccc(OC)cc2)C[C@H]1CN		510 nM	35 nM
CCN(CC)C(=O)[C@@]1(c2ccsc2)C[C@H]1CN	10000 nM	190 nM	19 nM
CCN(CC)C(=O)[C@]1(c2ccc(F)cc2)C[C@@H]1CN	10000 nM	320 nM	500 nM
CCN(CC)C(=O)[C@@]1(c2cccc(Cl)c2)C[C@H]1CN	9000 nM	86 nM	33 nM
CCN(CC)C(=O)[C@@]1(c2ccc(F)cc2)C[C@H]1CN		210 nM	63 nM
CCN(CC)C(=O)[C@@]1(c2ccc(Cl)c(Cl)c2)C[C@H]1CN	1700 nM	440 nM	26 nM

Other lines, results leading:

IC50 [1]	IC50 [2]	IC50 [3]	Compound
5300 nM	1200 nM	200 nM	CCN(CC)C(=O)[C@]1(c2cccc3ccccc23)C[C@@H]1CN
10000 nM	7100 nM	370 nM	CCN(CC)C(=O)[C@@]1(c2cccc3ccccc23)C[C@H]1CN
140 nM	18 nM	5 nM	CCN(CC)C(=O)[C@]1(c2ccc3ccccc3c2)C[C@@H]1CN
1400 nM	130 nM	29 nM	CCN(CC)C(=O)[C@@]1(c2ccc3ccccc3c2)C[C@H]1CN
	170 nM	38 nM	CCN(CC)C(=O)[C@]1(c2cccc(Cl)c2)C[C@@H]1CN
